For one compound, Activity results are on record in ChEMBL document CHEMBL4334471, “Discovery of 1,8-disubstituted-[1,2,3]triazolo[4,5-c]quinoline derivatives as a new class of Hippo signaling pathway inhibitors” (Bioorg Med Chem Lett, 2019).

Test [1] relates to Mast/stem cell growth factor receptor Kit (Homo sapiens), P10721 [D816H]. The experiment in a line: Inhibition of recombinant human C-Kit D816H mutant (544 to end residues) assessed as residual activity at 10 uM poly(Glu, Tyr) 4:1 as substrate incubated 40 mins in presence of [gamma-33ATP] by scintillation counting based radiometry assay relative to control.
Mast/stem cell growth factor receptor Kit (Homo sapiens), P10721 [D816H], sequence (P10721 whole entry D816H, the tested form may be a part): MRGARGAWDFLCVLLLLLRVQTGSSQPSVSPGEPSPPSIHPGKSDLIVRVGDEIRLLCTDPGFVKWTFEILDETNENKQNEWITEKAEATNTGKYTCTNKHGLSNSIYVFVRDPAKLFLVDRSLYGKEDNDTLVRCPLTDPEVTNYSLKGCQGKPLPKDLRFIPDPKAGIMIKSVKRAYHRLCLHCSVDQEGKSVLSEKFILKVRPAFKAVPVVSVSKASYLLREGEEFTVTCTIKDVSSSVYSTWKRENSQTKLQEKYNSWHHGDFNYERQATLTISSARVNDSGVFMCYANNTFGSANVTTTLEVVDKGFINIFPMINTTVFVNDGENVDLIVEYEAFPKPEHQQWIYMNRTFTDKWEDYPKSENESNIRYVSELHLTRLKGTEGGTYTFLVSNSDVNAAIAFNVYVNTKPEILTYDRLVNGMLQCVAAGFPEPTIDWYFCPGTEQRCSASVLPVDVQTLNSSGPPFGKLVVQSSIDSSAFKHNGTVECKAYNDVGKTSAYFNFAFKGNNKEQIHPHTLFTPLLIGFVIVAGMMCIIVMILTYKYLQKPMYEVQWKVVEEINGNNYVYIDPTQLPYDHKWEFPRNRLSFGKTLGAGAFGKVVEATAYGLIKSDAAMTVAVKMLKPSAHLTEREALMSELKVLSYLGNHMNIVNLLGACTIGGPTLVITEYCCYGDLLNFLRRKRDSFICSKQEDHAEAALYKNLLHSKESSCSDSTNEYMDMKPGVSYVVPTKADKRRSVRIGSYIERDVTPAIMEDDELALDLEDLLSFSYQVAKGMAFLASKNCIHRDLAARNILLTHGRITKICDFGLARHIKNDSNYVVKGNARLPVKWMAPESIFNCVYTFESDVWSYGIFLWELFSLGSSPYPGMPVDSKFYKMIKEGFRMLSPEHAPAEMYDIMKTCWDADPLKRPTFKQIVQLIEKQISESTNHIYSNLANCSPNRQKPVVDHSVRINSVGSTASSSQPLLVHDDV
Test [2] addresses Mitogen-activated protein kinase kinase kinase 10 (Homo sapiens) (UniProt Q02779). Nature of the test: Inhibition of recombinant human MLK2 (1 to 499 residues) assessed as residual activity at 10 uM using myelin basic protein as substrate incubated for 40 mins in presence of [gamma-33ATP by scintillation counting based radiometry assay relative to control.
The target in test [3] is Mitogen-activated protein kinase kinase kinase kinase 5 (Homo sapiens) (UniProt Q9Y4K4). The experiment in a line: Inhibition of recombinant human MAP4K5 assessed as residual activity at 10 uM using myelin basic protein as substrate incubated for 40 mins in presence of [gamma-33ATP by scintillation counting based radiometry assay relative to control.
The target in test [4] is Transient receptor potential cation channel subfamily M member 7 (Homo sapiens) (UniProt Q96QT4). Nature of the test: Inhibition of recombinant human CHAK1 (1180 to end residues) assessed as residual activity at 10 uM using myelin basic protein as substrate incubated for 40 mins in presence of [gamma-33ATP] by scintillation counting based radiometry assay relative to control.
Transient receptor potential cation channel subfamily M member 7 (Homo sapiens), sequence (Q96QT4 whole entry): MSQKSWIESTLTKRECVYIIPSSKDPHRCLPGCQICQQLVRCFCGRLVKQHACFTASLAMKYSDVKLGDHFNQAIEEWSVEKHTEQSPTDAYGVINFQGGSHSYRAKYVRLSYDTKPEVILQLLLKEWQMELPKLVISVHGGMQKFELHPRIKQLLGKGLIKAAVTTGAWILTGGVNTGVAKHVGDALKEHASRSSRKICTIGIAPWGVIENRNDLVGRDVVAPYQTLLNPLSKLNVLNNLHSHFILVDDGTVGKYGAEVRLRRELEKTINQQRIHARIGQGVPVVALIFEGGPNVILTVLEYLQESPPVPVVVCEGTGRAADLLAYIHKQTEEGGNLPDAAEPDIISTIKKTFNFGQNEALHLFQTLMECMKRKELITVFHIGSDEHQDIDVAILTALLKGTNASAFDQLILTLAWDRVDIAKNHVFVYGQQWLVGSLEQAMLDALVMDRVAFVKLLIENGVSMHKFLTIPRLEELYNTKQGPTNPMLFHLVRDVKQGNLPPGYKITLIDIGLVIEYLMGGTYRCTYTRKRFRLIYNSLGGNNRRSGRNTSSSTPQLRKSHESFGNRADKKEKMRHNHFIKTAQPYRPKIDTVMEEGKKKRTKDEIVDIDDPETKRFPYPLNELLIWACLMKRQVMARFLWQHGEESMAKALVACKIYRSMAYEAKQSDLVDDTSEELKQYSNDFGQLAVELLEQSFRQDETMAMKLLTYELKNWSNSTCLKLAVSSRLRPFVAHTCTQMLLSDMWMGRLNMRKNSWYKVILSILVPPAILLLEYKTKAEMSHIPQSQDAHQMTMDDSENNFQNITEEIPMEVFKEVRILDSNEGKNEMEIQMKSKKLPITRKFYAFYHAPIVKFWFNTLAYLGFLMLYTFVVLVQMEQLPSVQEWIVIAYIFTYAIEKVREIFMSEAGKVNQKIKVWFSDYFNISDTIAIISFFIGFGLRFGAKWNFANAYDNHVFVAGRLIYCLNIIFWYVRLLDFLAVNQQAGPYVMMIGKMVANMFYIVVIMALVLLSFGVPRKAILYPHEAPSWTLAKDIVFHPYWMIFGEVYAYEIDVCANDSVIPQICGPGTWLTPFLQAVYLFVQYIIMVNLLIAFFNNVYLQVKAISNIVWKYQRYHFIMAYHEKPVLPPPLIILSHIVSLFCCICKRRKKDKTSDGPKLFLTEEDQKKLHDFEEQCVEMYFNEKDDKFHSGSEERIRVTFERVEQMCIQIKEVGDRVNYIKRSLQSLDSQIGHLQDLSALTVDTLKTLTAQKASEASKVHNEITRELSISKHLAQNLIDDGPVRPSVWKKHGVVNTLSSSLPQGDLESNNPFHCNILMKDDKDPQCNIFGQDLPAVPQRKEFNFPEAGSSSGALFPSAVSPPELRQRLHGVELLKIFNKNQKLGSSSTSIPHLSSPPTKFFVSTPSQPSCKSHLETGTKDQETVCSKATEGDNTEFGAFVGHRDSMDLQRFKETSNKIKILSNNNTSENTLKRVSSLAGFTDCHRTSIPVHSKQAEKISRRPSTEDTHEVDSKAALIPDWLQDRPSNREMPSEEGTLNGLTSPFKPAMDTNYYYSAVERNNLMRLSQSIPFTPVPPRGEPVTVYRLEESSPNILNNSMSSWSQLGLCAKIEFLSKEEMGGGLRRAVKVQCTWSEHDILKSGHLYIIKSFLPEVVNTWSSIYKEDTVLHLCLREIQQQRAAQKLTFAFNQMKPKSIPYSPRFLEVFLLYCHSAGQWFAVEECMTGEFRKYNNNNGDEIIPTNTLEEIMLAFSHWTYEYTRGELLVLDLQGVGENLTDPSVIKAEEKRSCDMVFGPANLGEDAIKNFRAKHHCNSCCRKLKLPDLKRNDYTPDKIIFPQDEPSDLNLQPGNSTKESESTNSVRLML

Test [5] has as its target Casein kinase II subunit alpha (Homo sapiens) (UniProt P68400). The experiment in a line: Inhibition of recombinant full length human CK2alpha1 assessed as residual activity at 10 uM using RRRDDDSDDD as substrate incubated 40 mins in presence of [gamma-33ATP] by scintillation counting based radiometry assay relative to control.
Test [6] deals with Ephrin type-A receptor 1 (Homo sapiens) (UniProt P21709). Nature of the test: Inhibition of recombinant human EphA1 (568 to end residues) assessed as residual activity at 10 uM using KKKSPGEYVNIEF as substrate at 40 mins in presence of [gamma-33ATP] by scintillation counting based radiometry assay relative to control.
Test [7] addresses AP2-associated protein kinase 1 (Homo sapiens) (UniProt Q2M2I8). The experiment in a line: Inhibition of human AAK1 assessed as residual activity at 10 uM using peptide as substrate incubated for 120 mins in presence of [gamma-33ATP] by scintillation counting based radiometry assay relative to control.
Test [8] addresses Homeodomain-interacting protein kinase 1 (Homo sapiens) (UniProt Q86Z02). Nature of the test: Inhibition of human HIPK1 (158 to 555 residues) assessed as residual activity at 10 uM using myelin basic protein as substrate after 40 mins by [gamma-33ATP] radiometric assay relative to control.
For test [9], the species on record is Mus musculus. Nature of the test: Inhibition of mouse ABL1 L782P/G784R/W785L/L786V mutant (27 to end residues) at 10 uM using EAIYAAPFAKKK as substrate incubated for 40 mins in presence of [gamma-33ATP] by scintillation counting based radiometry assay relative to control. Details: scale not given: the % may be the effect or the level left.
For test [10], the target named is Serine/threonine-protein kinase SIK3 (Homo sapiens) (UniProt Q9Y2K2). The experiment in a line: Inhibition of recombinant human SIK3 (1 to 307 residues) assessed as residual activity at 10 uM using KKKVSRSGLYRSPSMPENLNRPR as substrate incubated for 40 mins in presence of [gamma33P]ATP by scintillation counting based radiometry assay relative to control.
The target of test [11] is cGMP-dependent protein kinase 2 (Homo sapiens) (UniProt Q13237). Nature of the test: Inhibition of recombinant full-length human PRKG2 assessed as residual activity at 10 uM using KKLRRTLSFAEPG as substrate incubated for 40 mins in presence of [gamma33P]ATP by scintillation counting based radiometry assay relative to control.
In test [12] the target is Myosin-IIIb (Homo sapiens) (UniProt Q8WXR4). Nature of the test: Inhibition of recombinant human MYO3B (1 to 306 residues) assessed as residual activity at 10 uM using RLGRDKYKTLRQI as substrate measured after 40 mins in presence of [gamma33P]ATP by scintillation counting based radiometry assay relative to control.
The target in test [13] is BDNF/NT-3 growth factors receptor (Homo sapiens) (UniProt Q16620). Nature of the test: Inhibition of recombinant human TRKB (455 to end residues) assessed as residual activity at 10 uM using poly(Glu, Tyr) 4:1 as substrate incubated for 40 mins in presence of [gamma33P]ATP by scintillation counting based radiometry assay relative to control.
Test [14] is filed under the species Homo sapiens. The experiment in a line: Inhibition of recombinant human BRSK2 S251I mutant (2 to end residues) assessed as residual activity at 10 uM using KKLNRTLSFAEPG substrate incubated for 40 mins in presence of [gamma-33ATP] by scintillation counting based radiometry assay relative to control.
The test system of test [15] is Tyrosine-protein kinase ABL1 (Homo sapiens), P00519 [T315I]. Nature of the test: Inhibition of human ABL1 T315I mutant (27 to end residues) assessed as residual activity at 10 uM using EAIYAAPFAKKK as substrate incubated for 40 mins in presence of [gamma-33ATP] by scintillation counting based radiometry assay relative to control.
The target in test [16] is Vascular endothelial growth factor receptor 2 (Homo sapiens) (UniProt P35968). The experiment in a line: Inhibition of human KDR (790 to end residues) assessed as residual activity at 10 uM using myelin basic protein as substrate after 40 mins by [gamma-33ATP] radiometric assay relative to control.
The target of test [17] is Insulin-like growth factor 1 receptor (Homo sapiens) (UniProt P08069). Nature of the test: Inhibition of human IGF1R activated (959 to end residues) assessed as residual activity at 10 uM using KKKSPGEYVNIEFG as substrate after 40 mins by [gamma-33ATP] radiometric assay relative to control.
Test [18] deals with Tyrosine-protein kinase ABL1 (Homo sapiens), P00519 [M351T]. Nature of the test: Inhibition of human ABL1 M351T mutant (27 to end residues) assessed as residual activity at 10 uM using EAIYAAPFAKKK as substrate incubated for 40 mins in presence of [gamma-33ATP] by scintillation counting based radiometry assay relative to control.
Test [19] concerns the target Homeodomain-interacting protein kinase 3 (Homo sapiens) (UniProt Q9H422). Nature of the test: Inhibition of human HIPK3 (161 to 562 residues) assessed as residual activity at 10 uM using myelin basic protein as substrate after 40 mins by [gamma-33ATP] radiometric assay relative to control.
Test [20] concerns the target Serine/threonine-protein kinase Nek6 (Homo sapiens) (UniProt Q9HC98). The experiment in a line: Inhibition of recombinant human NEK6 (2 to end residues) assessed as residual activity at 10 uM using FLAKSFGSPNRAYKK as substrate measured after 40 mins in presence of [gamma33P]ATP by scintillation counting based radiometry assay relative to control.
For test [21], the target named is Serine/threonine-protein kinase SBK1 (Homo sapiens) (UniProt Q52WX2). Nature of the test: Inhibition of recombinant full-length human SBK1 assessed as residual activity at 10 uM using KKLRRTLSVA as substrate incubated for 120 mins in presence of [gamma33P]ATP by scintillation counting based radiometry assay relative to control.
Serine/threonine-protein kinase SBK1 (Homo sapiens), sequence (Q52WX2 whole entry): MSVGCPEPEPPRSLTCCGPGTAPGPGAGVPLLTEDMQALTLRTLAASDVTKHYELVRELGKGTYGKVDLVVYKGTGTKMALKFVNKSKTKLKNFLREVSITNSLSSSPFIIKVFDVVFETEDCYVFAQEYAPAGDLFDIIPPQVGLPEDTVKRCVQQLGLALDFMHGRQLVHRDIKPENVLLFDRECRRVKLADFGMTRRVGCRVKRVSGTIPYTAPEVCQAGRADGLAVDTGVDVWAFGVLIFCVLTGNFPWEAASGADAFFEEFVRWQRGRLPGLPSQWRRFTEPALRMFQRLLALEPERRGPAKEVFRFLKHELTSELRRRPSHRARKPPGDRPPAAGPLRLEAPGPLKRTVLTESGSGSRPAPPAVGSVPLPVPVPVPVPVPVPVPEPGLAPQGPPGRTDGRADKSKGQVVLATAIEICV

Casein kinase II subunit alpha (Homo sapiens), sequence (P68400 whole entry, looked up): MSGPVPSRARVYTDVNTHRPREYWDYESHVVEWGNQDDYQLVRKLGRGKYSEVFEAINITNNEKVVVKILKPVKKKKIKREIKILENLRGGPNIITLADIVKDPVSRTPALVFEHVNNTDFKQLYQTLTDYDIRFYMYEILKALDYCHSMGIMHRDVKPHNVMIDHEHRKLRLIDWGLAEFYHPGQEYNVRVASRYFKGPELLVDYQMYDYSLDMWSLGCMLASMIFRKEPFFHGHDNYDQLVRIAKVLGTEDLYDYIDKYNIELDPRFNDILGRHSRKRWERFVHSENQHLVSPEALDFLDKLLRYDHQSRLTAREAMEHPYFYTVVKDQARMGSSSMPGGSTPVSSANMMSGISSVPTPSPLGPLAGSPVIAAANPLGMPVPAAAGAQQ
Homeodomain-interacting protein kinase 3 (Homo sapiens), sequence (Q9H422 whole entry, looked up, the tested form may be a part): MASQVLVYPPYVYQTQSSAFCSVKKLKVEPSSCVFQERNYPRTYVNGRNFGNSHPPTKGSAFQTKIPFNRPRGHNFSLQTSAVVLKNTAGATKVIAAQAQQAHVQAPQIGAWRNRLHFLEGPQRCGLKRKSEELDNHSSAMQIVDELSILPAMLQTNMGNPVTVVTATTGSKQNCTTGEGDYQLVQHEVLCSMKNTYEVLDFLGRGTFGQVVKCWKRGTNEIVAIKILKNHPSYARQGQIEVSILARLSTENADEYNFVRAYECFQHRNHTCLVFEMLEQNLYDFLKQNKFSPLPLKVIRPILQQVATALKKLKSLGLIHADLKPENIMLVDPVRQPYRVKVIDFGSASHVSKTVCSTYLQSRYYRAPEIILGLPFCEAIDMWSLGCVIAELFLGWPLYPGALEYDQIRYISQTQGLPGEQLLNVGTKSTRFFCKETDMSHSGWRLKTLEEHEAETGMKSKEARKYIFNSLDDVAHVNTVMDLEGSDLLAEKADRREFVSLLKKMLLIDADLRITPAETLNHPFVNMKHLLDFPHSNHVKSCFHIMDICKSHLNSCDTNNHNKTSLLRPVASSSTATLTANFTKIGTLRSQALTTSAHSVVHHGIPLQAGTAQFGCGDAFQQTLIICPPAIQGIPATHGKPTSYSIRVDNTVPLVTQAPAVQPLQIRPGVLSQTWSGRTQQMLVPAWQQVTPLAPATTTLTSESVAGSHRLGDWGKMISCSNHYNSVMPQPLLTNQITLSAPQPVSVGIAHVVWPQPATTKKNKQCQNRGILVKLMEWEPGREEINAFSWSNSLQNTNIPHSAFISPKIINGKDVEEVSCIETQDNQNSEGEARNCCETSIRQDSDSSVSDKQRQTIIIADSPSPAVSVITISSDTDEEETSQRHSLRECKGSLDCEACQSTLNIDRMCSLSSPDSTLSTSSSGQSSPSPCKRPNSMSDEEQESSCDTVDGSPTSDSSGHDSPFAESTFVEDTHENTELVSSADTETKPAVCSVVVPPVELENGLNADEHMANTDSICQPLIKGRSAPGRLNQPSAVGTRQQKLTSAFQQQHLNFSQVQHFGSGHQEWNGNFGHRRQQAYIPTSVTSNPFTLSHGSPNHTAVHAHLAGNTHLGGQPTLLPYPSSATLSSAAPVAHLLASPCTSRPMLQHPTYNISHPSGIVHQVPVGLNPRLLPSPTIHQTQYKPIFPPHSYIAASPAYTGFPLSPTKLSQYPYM

As for `C[C@@H](c1ccccc1)n1nnc2cnc3ccc(-c4cnc5[nH]ccc5c4)cc3c21`, the Activity in test [1] was found to be 8%; in test [2], 69%; in test [3], 62%; in test [4], 66%; in test [5], 68%; in [6] it was 91%. Also, the Activity in [7] worked out at 78%; in test [8] it was 78%; in test [9] it was 0%; in test [10] it was 20%; in [11], 52%; in [12] it was 73%. For the same compound, the Activity in [13] worked out at 2%; in [14], 77%; in test [15], 110%; in test [16], 63%; in test [17], 79%; in test [18], 3%. The Activity stood at 75% in test [19], 72% in test [20] and 113% in test [21].
